Results taken from patent US12077503B2, “Substituted cyclic amides and their use as herbicides” (FMC CORPORATION, priority 2015, dated 2024).

Experiments:
Assay type in all cases: in vivo
[1] = system: barnyardgrass (Echinochloa crus-galli); experiment: Test B flooded paddy test; conditions: Flood, 250 g ai/ha; 0 to 100 scale where 0 is no effect and 100 is complete control; 13 to 15 d
Procedure, shortened: (§1)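 Visual ratings (0 none to 100 complete control) are relative to untreated plants, taken 13–15 d after treatment in a greenhouse. Test material went straight into floodwater standing 3 cm above the soil, kept constant, on plants at the 2-leaf stage.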

[2] = system: ducksalad (Heteranthera limosa); experiment: Test B flooded paddy test; conditions: Flood, 250 g ai/ha; 0 to 100 scale where 0 is no effect and 100 is complete control; 13 to 15 d
Procedure, shortened: as §1

[3] = system: sedge, umbrella (small-flower umbrella sedge, Cyperus difformis); experiment: Test B flooded paddy test; conditions: Flood, 250 g ai/ha; 0 to 100 scale where 0 is no effect and 100 is complete control; 13 to 15 d
Procedure, shortened: as §1

rice (Oryra sativa) = experiment: Test B flooded paddy test; conditions: Flood, 250 g ai/ha; 0 to 100 scale where 0 is no effect and 100 is complete control; 13 to 15 d
Procedure, shortened: as §1

[4] = system: wheat (Triticum aestivum); experiment: Test A postemergence
Procedure, shortened: (§2)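 Ratings of 0 (no effect) to 100 (complete control) come from visual comparison with untreated controls roughly 10 d after treatment. Test chemicals, formulated in a non-phytotoxic solvent mixture with surfactant, were applied either as a preemergence directed soil spray on seeded soil or postemergence to one- to two-leaf plants 2 to 10 cm tall.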

corn (Zea mays) = experiment: Test A postemergence
Procedure, shortened: as §2

[5] = system: ryegrass, Italian (Italian ryegrass, Lolium multiflorum); experiment: Test A postemergence
Procedure, shortened: as §2

[6] = system: ragweed (common ragweed, Ambrosia elatior); experiment: Test A postemergence
Procedure, shortened: as §2

[7] = system: barnyardgrass (Echinochloa crus-galli); experiment: Test A postemergence
Procedure, shortened: as §2

[8] = system: pigweed (Amaranthus retroflexus); experiment: Test A postemergence
Procedure, shortened: as §2

[9] = system: blackgrass (Alopecurus myosuroides); experiment: Test A postemergence
Procedure, shortened: as §2

Kochia (Kochia scoparia) [10] = experiment: Test A postemergence
Procedure, shortened: as §2

[11] = system: Galium (catchweed bedstraw, Galium aparine); experiment: Test A postemergence
Procedure, shortened: as §2

[12] = system: giant foxtail (Setaria faberii); experiment: Test A postemergence
Procedure, shortened: as §2

[13] = system: ryegrass, Italian (Italian ryegrass, Lolium multiflorum); experiment: Test A preemergence; conditions: Preemergence; for Plant response rating, Ryegrass, Italian: 125 g ai/ha, visual injury after approximately 10 d, 0 to 100 scale where 0 is no effect and 100 is complete control; for Ryegrass, Italian plant response rating (0 to 100 scale, 0 is no effect, 100 is complete control): 500 g ai/ha, visual injury approx. 10 d
Procedure, shortened: as §2

[14] = system: ragweed (common ragweed, Ambrosia elatior); experiment: Test A preemergence; conditions: Preemergence; for Plant response rating, Ragweed: 125 g ai/ha, visual injury after approximately 10 d, 0 to 100 scale where 0 is no effect and 100 is complete control
Procedure, shortened: as §2

[15] = system: barnyardgrass (Echinochloa crus-galli); experiment: Test A preemergence; conditions: Preemergence; for Plant response rating, Barnyardgrass: 125 g ai/ha, visual injury after approximately 10 d, 0 to 100 scale where 0 is no effect and 100 is complete control; for Barnyardgrass plant response rating (0 to 100 scale, 0 is no effect, 100 is complete control): 500 g ai/ha, visual injury approx. 10 d
Procedure, shortened: as §2

[16] = system: pigweed (Amaranthus retroflexus); experiment: Test A preemergence; conditions: Preemergence; for Plant response rating, Pigweed: 125 g ai/ha, visual injury after approximately 10 d, 0 to 100 scale where 0 is no effect and 100 is complete control; for Pigweed plant response rating (0 to 100 scale, 0 is no effect, 100 is complete control): 500 g ai/ha, visual injury approx. 10 d
Kochia (Kochia scoparia) [17] = experiment: Test A preemergence; conditions: Preemergence; for Plant response rating, Kochia: 125 g ai/ha, visual injury after approximately 10 d, 0 to 100 scale where 0 is no effect and 100 is complete control; for Kochia plant response rating (0 to 100 scale, 0 is no effect, 100 is complete control): 500 g ai/ha, visual injury approx. 10 d
Procedure, shortened: as §2

[18] = system: giant foxtail (Setaria faberii); experiment: Test A preemergence; conditions: Preemergence; for Plant response rating, Foxtail, Giant: 125 g ai/ha, visual injury after approximately 10 d, 0 to 100 scale where 0 is no effect and 100 is complete control; for Foxtail, Giant plant response rating (0 to 100 scale, 0 is no effect, 100 is complete control): 500 g ai/ha, visual injury approx. 10 d
Procedure, shortened: as §2

[19] = 125 g ai/ha, postemergence, visual rating after approx. 10 d, 0 to 100 scale (0 no effect, 100 complete control)
[20] = Postemergence, 500 g ai/ha, 0 to 100 scale where 0 is no effect and 100 is complete control
[21] = 125 g ai/ha, postemergence, visual injury rating on 0 to 100 scale (0 no effect, 100 complete control), approx. 10 d

CN1CC(c2cccc(OC(F)(F)C(F)F)c2)C(C(=O)Nc2ccccc2F)C1=O (centres unmarked) [Compound 539]
95: Plant response rating, Ducksalad [2]
80: Plant response rating, Blackgrass [9, 20] | Pigweed plant response rating (0 to 100 scale, 0 is no effect, 100 is complete control) [16]
50: Plant response rating, Wheat [4, 19] | Plant response rating, Ragweed [6, 20] | Plant response rating, Pigweed [8, 20] | Blackgrass plant response rating [9, 21] | Ryegrass, Italian plant response rating (0 to 100 scale, 0 is no effect, 100 is complete control) [13]
90: Plant response rating, Corn (corn (Zea mays); [20]) | Barnyardgrass plant response rating [7, 21] | Plant response rating, Barnyardgrass [7, 20] | Plant response rating, Foxtail, Giant [12, 19] | Plant response rating, Foxtail, Giant [12, 20] | Plant response rating, Barnyardgrass [15] | Barnyardgrass plant response rating (0 to 100 scale, 0 is no effect, 100 is complete control) [15] | Plant response rating, Foxtail, Giant [18] | Foxtail, Giant plant response rating (0 to 100 scale, 0 is no effect, 100 is complete control) [18]
60: Plant response rating, Kochia (Kochia (Kochia scoparia) [17])
20: Plant response rating, Pigweed [8, 19]
70: Plant response rating, Wheat [4, 20] | Plant response rating, Corn (corn (Zea mays); [19]) | Plant response rating, Ryegrass, Italian [5, 20] | Plant response rating, Kochia (Kochia (Kochia scoparia) [10]; [20]) | Plant response rating, Galium [11, 19] | Plant response rating, Galium [11, 20] | Ragweed plant response rating (0 to 100 scale, 0 is no effect, 100 is complete control) ([14]; 500 g ai/ha, visual injury approx. 10 d) | Kochia plant response rating (0 to 100 scale, 0 is no effect, 100 is complete control) (Kochia (Kochia scoparia) [17])
30: Plant response rating, Ryegrass, Italian [13]
40: Plant response rating, Kochia (Kochia (Kochia scoparia) [10]; [19]) | Plant response rating, Pigweed [16]
0: Plant response rating, Sedge, Umbrella [3] | Plant response rating, Rice (rice (Oryra sativa)) | Plant response rating, Ryegrass, Italian [5, 19] | Plant response rating, Ragweed [6, 19] | Plant response rating, Ragweed [14]
65: Plant response rating, Barnyardgrass [1]

CC(C)Oc1cccc(C2CNC(=O)C2C(=O)Nc2cccc(F)c2F)c1 (centres unmarked) [Compound 553]
50: Plant response rating, Blackgrass [9, 19] | Plant response rating, Kochia (Kochia (Kochia scoparia) [10]; [20])
90: Plant response rating, Corn (corn (Zea mays); [20]) | Plant response rating, Barnyardgrass [7, 19] | Plant response rating, Barnyardgrass [7, 20] | Plant response rating, Foxtail, Giant [12, 20] | Plant response rating, Barnyardgrass [15] | Barnyardgrass plant response rating (0 to 100 scale, 0 is no effect, 100 is complete control) [15] | Plant response rating, Foxtail, Giant [18] | Foxtail, Giant plant response rating (0 to 100 scale, 0 is no effect, 100 is complete control) [18]
100: Plant response rating, Ducksalad [2]
40: Plant response rating, Wheat [4, 19] | Plant response rating, Ragweed [6, 20] | Plant response rating, Ragweed [14] | Pigweed plant response rating (0 to 100 scale, 0 is no effect, 100 is complete control) [16]
60: Plant response rating, Wheat [4, 20] | Plant response rating, Ryegrass, Italian [5, 19] | Plant response rating, Blackgrass [9, 20] | Plant response rating, Galium [11, 19] | Plant response rating, Galium [11, 20] | Plant response rating, Kochia (Kochia (Kochia scoparia) [17])
80: Plant response rating, Corn (corn (Zea mays); [19]) | Kochia plant response rating (0 to 100 scale, 0 is no effect, 100 is complete control) (Kochia (Kochia scoparia) [17])
0: Plant response rating, Sedge, Umbrella [3]
70: Plant response rating, Ryegrass, Italian [5, 20] | Plant response rating, Foxtail, Giant [12, 19] | Plant response rating, Ryegrass, Italian [13] | Ryegrass, Italian plant response rating (0 to 100 scale, 0 is no effect, 100 is complete control) [13]
10: Plant response rating, Rice (rice (Oryra sativa))
30: Plant response rating, Ragweed [6, 19] | Plant response rating, Pigweed [8, 20] | Plant response rating, Kochia (Kochia (Kochia scoparia) [10]; [19]) | Plant response rating, Pigweed [16]
65: Plant response rating, Barnyardgrass [1]
20: Plant response rating, Pigweed [8, 19]
